Laboratory results reported in the NIST ThermoML archive (doi:10.1016/j.jct.2017.08.004).

Experiment: molar heat capacity at constant pressure
Details: 101.33 kPa

OC[C@@H](O)C(O)[C@H](O)CO [D-arabitol]
molar heat capacity at constant pressure [J/K/mol]
Details | Small sample (50 mg) DSC | relaxation calorimetry
250.15 K, Crystal | 167.62 | –
251.15 K, Crystal | 168.09 | –
252.02 K, Crystal | – | 171.93
252.15 K, Crystal | 168.72 | –
253.15 K, Crystal | 169.42 | –
254.15 K, Crystal | 170.21 | –
255.15 K, Crystal | 170.83 | –
256.15 K, Crystal | 171.49 | –
257.15 K, Crystal | 172.29 | –
258.15 K, Crystal | 172.95 | –
259.15 K, Crystal | 173.8 | –
260 K, Crystal | – | 176.9
260.15 K, Crystal | 174.49 | –
261.15 K, Crystal | 175.07 | –
262.08 K, Crystal | – | 178.58
262.15 K, Crystal | 175.71 | –
263.15 K, Crystal | 176.2 | –
264.15 K, Crystal | 176.94 | –
265.15 K, Crystal | 177.53 | –
266.15 K, Crystal | 177.9 | –
267.15 K, Crystal | 178.76 | –
268.15 K, Crystal | 179.47 | –
269.15 K, Crystal | 180.14 | –
270 K, Crystal | – | 183.17
270.15 K, Crystal | 180.88 | –
271.15 K, Crystal | 181.55 | –
272.1 K, Crystal | – | 184.8
272.15 K, Crystal | 182.34 | –
273.15 K, Crystal | 183.05 | 185.17
274.15 K, Crystal | 183.84 | –
275.15 K, Crystal | 184.43 | –
276.15 K, Crystal | 185.01 | –
277.15 K, Crystal | 185.89 | –
278.15 K, Crystal | 186.82 | –
279.15 K, Crystal | 187.46 | –
280 K, Crystal | – | 189.54
280.15 K, Crystal | 187.87 | –
281.15 K, Crystal | 188.79 | –
282.15 K, Crystal | 189.61 | –
282.16 K, Crystal | – | 190.77
283.15 K, Crystal | 190.26 | –
284.15 K, Crystal | 190.76 | –
285.15 K, Crystal | 191.48 | –
286.15 K, Crystal | 192.29 | –
287.15 K, Crystal | 192.88 | –
288.15 K, Crystal | 193.55 | –
289.15 K, Crystal | 194.1 | –
290 K, Crystal | – | 196
290.15 K, Crystal | 195.02 | –
291.15 K, Crystal | 195.84 | –
292.15 K, Crystal | 196.49 | –
292.31 K, Crystal | – | 197.61
293.15 K, Crystal | 197.3 | –
294.15 K, Crystal | 198.27 | –
295.15 K, Crystal | 198.8 | –
296.15 K, Crystal | 199.7 | –
297.15 K, Crystal | 200.51 | –
298.15 K, Crystal | 201.09 | 201.35
299.15 K, Crystal | 201.8 | –
300 K, Crystal | – | 202.57
300.15 K, Crystal | 202.43 | –
301.15 K, Crystal | 203.27 | –
302.15 K, Crystal | 203.89 | –
302.32 K, Crystal | – | 203.84
303.15 K, Crystal | 204.69 | –
304.15 K, Crystal | 205.64 | –
305 K, Crystal | 206.38 | –
305.15 K, Crystal | 206.52 | –
306.15 K, Crystal | 207.29 | –
307.15 K, Crystal | 207.99 | –
308.15 K, Crystal | 209.04 | –
309.15 K, Crystal | 210.24 | –
310 K, Crystal | 210.77 | –
310.15 K, Crystal | 211.11 | –
311.15 K, Crystal | 212.09 | –
312.15 K, Crystal | 213.04 | –
313.15 K, Crystal | 213.93 | –
314.15 K, Crystal | 214.62 | –
315 K, Crystal | 215.3 | –
315.15 K, Crystal | 215.49 | –
316.15 K, Crystal | 216.44 | –
317.15 K, Crystal | 217.32 | –
318.15 K, Crystal | 218.08 | –
319.15 K, Crystal | 218.98 | –
320 K, Crystal | 219.92 | –
320.15 K, Crystal | 219.94 | –
321.15 K, Crystal | 220.72 | –
322.15 K, Crystal | 221.63 | –
323.15 K, Crystal | 222.6 | –
324.15 K, Crystal | 223.41 | –
325 K, Crystal | 224.62 | –
325.15 K, Crystal | 224.24 | –
326.15 K, Crystal | 225.48 | –
327.15 K, Crystal | 226.61 | –
328.15 K, Crystal | 227.57 | –
329.15 K, Crystal | 228.54 | –
330 K, Crystal | 229.51 | –
330.15 K, Crystal | 229.69 | –
331.15 K, Crystal | 231.05 | –
332.15 K, Crystal | 232.16 | –
333.15 K, Crystal | 233.08 | –
334.15 K, Crystal | 234.14 | –
335 K, Crystal | 234.75 | –
335.15 K, Crystal | 235.21 | –
336.15 K, Crystal | 236.36 | –
337.15 K, Crystal | 237.46 | –
338.15 K, Crystal | 238.56 | –
339.15 K, Crystal | 239.77 | –
340 K, Crystal | 240.61 | –
340.15 K, Crystal | 240.89 | –
341.15 K, Crystal | 242.17 | –
342.15 K, Crystal | 243.41 | –
343.15 K, Crystal | 244.65 | –
344.15 K, Crystal | 245.91 | –
345 K, Crystal | 247.41 | –
345.15 K, Crystal | 247.41 | –
346.15 K, Crystal | 248.94 | –
350 K, Crystal | 255.58 | –
394.05 K, Liquid | 448.1 | –
394.15 K, Liquid | 448.11 | –
395 K, Liquid | 447.62 | –
395.15 K, Liquid | 447.51 | –
396.15 K, Liquid | 447.26 | –
397.15 K, Liquid | 446.68 | –
398.15 K, Liquid | 446.29 | –
399.15 K, Liquid | 446.43 | –
400 K, Liquid | 446.52 | –
400.15 K, Liquid | 446.4 | –
401.15 K, Liquid | 446.31 | –
402.15 K, Liquid | 446.59 | –
403.15 K, Liquid | 447.05 | –
404.15 K, Liquid | 446.97 | –
405 K, Liquid | 447.4 | –
405.15 K, Liquid | 447.29 | –
406.15 K, Liquid | 447.83 | –
407.15 K, Liquid | 447.84 | –
408.15 K, Liquid | 448.15 | –
409.15 K, Liquid | 448.6 | –
410 K, Liquid | 449.23 | –
410.15 K, Liquid | 448.95 | –
411.15 K, Liquid | 449.41 | –
412.15 K, Liquid | 449.97 | –
413.15 K, Liquid | 450.76 | –
414.15 K, Liquid | 451.47 | –
415 K, Liquid | 452.02 | –
415.15 K, Liquid | 452.79 | –
416.15 K, Liquid | 453.35 | –
417.15 K, Liquid | 453.87 | –
418.15 K, Liquid | 454.54 | –
419.15 K, Liquid | 456.24 | –
420 K, Liquid | 455.76 | –
420.15 K, Liquid | 456.5 | –
421.15 K, Liquid | 457.07 | –
422.15 K, Liquid | 457.63 | –
423.15 K, Liquid | 457.94 | –
424.15 K, Liquid | 458.28 | –
